From patent publication US12239643B2, “Therapeutic agent for inflammatory diseases, autoimmune diseases, fibrotic diseases, and cancer diseases” (MEIJI SEIKA PHARMA CO., LTD., priority 2018, dated 2025) come the findings set out here.

Molecules are shown by their SMILES. Read-outs that look alike come from different tables or passages of the source.

In data set [1] the test system is PDE4. The experiment in a line: Evaluation of PDE4 inhibitory activity, scintillation proximity assay. It counts as biochemical. The settings on record: for PDE4 inhibitory activity: summary in words of Tables 57 to 69. Put shortly:
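IC50 was derived from inhibition curves, referenced to an enzyme-free blank and a DMSO-only control. Compound, PDE4 preparation and tritiated cAMP reacted 120 min at RT in Tris-HCl buffer (pH 7.4) with MgCl2, EGTA and BSA; YSi-SPA beads with ZnSO4 bound product before scintillation counting.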
On the technique in general: SPA uses beads or plates that emit light when radiolabelled molecules are held near them.

For data set [2], the system named is oxazolone-induced auricle edema, BALB/c mice. Put plainly: Hapten repeated application mouse chronic dermatitis model (oral, topical). It counts as in vivo. The note with it: oral, 0.3 to 10 mg/kg twice a day for 10 days. On the procedure: Evaluation was carried out using female BALB/c mice (7 to 8 weeks of age). First, the hair of the abdomen of the mice was treated with a hair clipper, and then 150 μL of a 3% oxazolone acetone/ethanol solution was applied to the abdomen as a hapten. One week later, 20 μL/ear of 1% oxazolone acetone/ethanol solution was applied to the outer surface of the auricle of both ears of the mice 3 times/week to induce inflammation. A 1% oxazolone-acetone/ethanol solution was applied every other day for 10 days from 1 week after the start of inflammation induction. In addition, for 10 days from 1 week after the start of inflammation induction, the test compound suspended in 0.5% w/v methylcellulose (0.5% MC) was orally administered at 0.3 to 10 mg/kg twice a day (10 μL/g), or 20 μL of a 0.3 to 3% test compound dissolved in an acetone/ethanol solution was applied once or twice a day (topical administration). A 1% oxazolone was not applied to the blank. The control was one in which 1% oxazolone was applied and only 0.5% MC was orally administered without using the test compound, or only an acetone/ethanol solution was applied.
After administration for 10 days, auricle thickness was measured using a dial thickness gauge, and the changes in auricular thickness before the treatment (immediately before the start of administration of the test compound) and after the treatment (after the administration of the test compound for 10 days) were used to calculate the edema suppression rate by the following formula. Edema Suppression Rate (%)={1−(Auricle Thickness After Treatment by Test Compound−Auricle Thickness Before Treatment by Test Compound)/(Auricle Thickness After Treatment of Control−Auricle Thickness Before Treatment of Control)}×100
The measurement results obtained by measuring the edema suppression rate at the time of oral administration of each test compound by the above method were evaluated in accordance with the following evaluated basis; A: 70% or more, B: 40% or more and less than 70%, and C: less than 40%. In addition, the measurement results obtained by measuring the edema suppression rate at the time of topical administration of each test compound were evaluated in accordance with the following evaluated basis; A: 100% or more, B: 70% or more and less than 100%, and C: less than 70%.

A short description of data set [3]: Hepatic metabolic stability (rat liver microsome method). The class given is in vitro ADME. The note with it: rat liver microsomes 0.5 mg/mL, test substance 1 μM, NADPH 1 mM, 37° C., 30 minutes. Put shortly:
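Scored by % parent left after 30 min (30 min/0 min ×100, LC-MS), banded A ≥75%, B 60–<75%, C 45–<60%, D <45%. Incubation: 1 μM compound, 0.5 mg/mL rat microsomes, pH 7.4 phosphate buffer, 37° C, 5 min preincubation, NADPH 1 mM started, acetonitrile quench.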
(Microsomes from liver hold many membrane-bound enzymes, among them those of drug oxidation.)

Where [4] appears, read: finer grading of compounds rated A in Evaluation 1, read-out: PDE4 Inhibitory Activity (Evaluation 2).
Setting [5] is: scintillation proximity assay, read-out: PDE4 Inhibitory Activity (Evaluation 1; concentration for the inhibition rate of 50%).

Take `COC(C)(c1ccc(-c2nccs2)c2oc(N3CC4CC(C3)N4)nc12)C(F)(F)F` (stereo not drawn) [Example 235, 2-(3,6-Diazabicyclo[3.1.1]heptan-3-yl)-7-(thiazol-2-yl)-4-(1,1,1-trifluoro-2-methoxypropan-2-yl)benzo[d]oxazole]: the IC50 in data set [1] (setting [4]) is no more than 1 nM; in data set [1] (setting [5]) it was less than 100 nM. Further, the PDE4 inhibitory activity result in data set [1] was “particularly excellent”. The “Mouse Chronic Dermatitis Model (Test Example 8), Oral: edema suppression rate” value in data set [2] is recorded as “A (A: 70% or more)”.
In the same order, the values of `CC(O)(c1ccc(-c2nccs2)c2oc(N3CC4CC(C3)N4)nc12)C(F)F` (stereo not drawn) [Example 296, 2-(2-(3,6-Diazabicyclo[3.1.1]heptan-3-yl)-7-(thiazol-2-yl)benzo[d]oxazol-4-yl)-1,1-difluoropropan-2-ol] are 1 to 11 nM, less than 100 nM, “particularly excellent” and “A (A: 70% or more)”.
On to `CC(O)(CO)C(F)(F)Oc1ccc(-c2nccs2)c2oc(N3CC4CC(C3)N4)nc12` (single isomer, unassigned) [Example 364, 3-((2-(3,6-Diazabicyclo[3.1.1]heptan-3-yl)-7-(thiazol-2-yl)benzo[d]oxazol-4-yl)oxy)-3,3-difluoro-2-methylpropane-1,2-diol], for which the “Residual ratio (% remaining for 30-minute reaction)” value in data set [3] is on record as “A (A: a % remaining rate of 75% or more)”. Also, the IC50 in data set [1] (setting [5]) is less than 100 nM.
Regarding `CC(C)(O)C(F)(F)Oc1ccc(-c2ccc(F)cn2)c2oc(N3CC4CC(C3)N4)nc12` [Example 329, 1-((2-(3,6-Diazabicyclo[3.1.1]heptan-3-yl)-7-(5-fluoropyridin-2-yl)benzo[d]oxazol-4-yl)oxy)-1,1-difluoro-2-methylpropan-2-ol], in data set [3], the “Residual ratio (% remaining for 30-minute reaction)” value is on record as “A (A: a % remaining rate of 75% or more)”. In data set [1] (setting [5]), the IC50 was less than 100 nM.
For the compound `COCCNS(=O)(=O)c1ccc(-c2nccs2)c2oc(N3CC4CC(C3)N4)nc12` [Example 387, 2-(3,6-Diazabicyclo[3.1.1]heptan-3-yl)-N-(2-methoxyethyl)-7-(thiazol-2-yl)benzo[d]oxazole-4-sulfonamide], in data set [3], the “Residual ratio (% remaining for 30-minute reaction)” value is on record as “A (A: a % remaining rate of 75% or more)”. Moreover, the IC50 in data set [1] (setting [5]) was less than 100 nM.
As to `COC(c1cc(-c2nccs2)c2oc(N3CC4CC(C3)N4)nc2c1OC(F)(F)F)C(F)F` (stereo not drawn) [Example 208, 2-(3,6-Diazabicyclo[3.1.1]heptan-3-yl)-5-(2,2-difluoro-1-methoxyethyl)-7-(thiazol-2-yl)-4-(trifluoromethoxy)benzo[d]oxazole], the IC50 in data set [1] (setting [4]) is 1 to 11 nM; in data set [1] (setting [5]), less than 100 nM. For the same compound, the PDE4 inhibitory activity entry in data set [1] is given as “particularly excellent”. The “Mouse Chronic Dermatitis Model (Test Example 8), Oral: edema suppression rate” value in data set [2] is “B (B: 40% or more and less than 70%)”.
For the compound `CC(O)C(F)(F)Oc1ccc(-c2nccs2)c2oc(N3CC4CC(C3)N4O)nc12` (single isomer, unassigned) [Example 373, 3-(4-(1,1-Difluoro-2-hydroxypropoxy)-7-(thiazol-2-yl)benzo[d]oxazol-2-yl)-3,6-diazabicyclo[3.1.1]heptan-6-ol], the “Residual ratio (% remaining for 30-minute reaction)” value in data set [3] was “B (B: 60% or more and less than 75%)”. In data set [1] (setting [5]), the IC50 was less than 100 nM.
As for `c1cnc(Oc2ccc(-c3nccs3)c3oc(N4CC5CC(C4)N5)nc23)nc1` [Example 338, 2-(3,6-Diazabicyclo[3.1.1]heptan-3-yl)-4-(pyrimidin-2-yloxy)-7-(thiazol-2-yl)benzo[d]oxazole], the “Residual ratio (% remaining for 30-minute reaction)” value in data set [3] is given as “A (A: a % remaining rate of 75% or more)”. Also, the IC50 in data set [1] (setting [5]) was less than 100 nM.
`FC(F)(F)C(OCc1nnn[nH]1)c1ccc(-c2nccs2)c2oc(N3CC4CC(C3)N4)nc12` (stereo not drawn) [Example 231, 4-(1-((1H-tetrazol-5-yl)methoxy)-2,2,2-trifluoroethyl)-2-(3,6-diazabicyclo[3.1.1]heptan-3-yl)-7-(thiazol-2-yl)benzo[d]oxazole]: the “Residual ratio (% remaining for 30-minute reaction)” value in data set [3] is “A (A: a % remaining rate of 75% or more)”. For the same compound, in data set [1] (setting [5]), the IC50 is less than 100 nM.
With `O=S(=O)(c1ccc(-c2nccs2)c2oc(N3CC4CC(C3)N4)nc12)C(F)(F)F` [Example 334, 2-(3,6-Diazabicyclo[3.1.1]heptan-3-yl)-7-(thiazol-2-yl)-4-((trifluoromethyl)sulfonyl)benzo[d]oxazole], the “Residual ratio (% remaining for 30-minute reaction)” value in data set [3] was “B (B: 60% or more and less than 75%)”. Moreover, in data set [1] (setting [5]), the IC50 was less than 100 nM.
In the case of `CC(C)(O)C(F)(F)Oc1ccc(-c2ncco2)c2oc(N3CC4CCC(C3)N4)nc12` [Example 321, 1-((2-(3,8-Diazabicyclo[3.2.1]octan-3-yl)-7-(oxazol-2-yl)benzo[d]oxazol-4-yl)oxy)-1,1-difluoro-2-methylpropan-2-ol], the “Residual ratio (% remaining for 30-minute reaction)” value in data set [3] was “A (A: a % remaining rate of 75% or more)”. In data set [1] (setting [5]), the IC50 is less than 100 nM.
Take `OCC(F)(F)Oc1c(Cl)cc(-c2nccs2)c2oc(N3CC4CC(C3)N4)nc12` [Example 401, 2-((2-(3,6-Diazabicyclo[3.1.1]heptan-3-yl)-5-chloro-7-(thiazol-2-yl)benzo[d]oxazol-4-yl)oxy)-2,2-difluoroethan-1-ol]: the “Residual ratio (% remaining for 30-minute reaction)” value in data set [3] is recorded as “A (A: a % remaining rate of 75% or more)”. The IC50 in data set [1] (setting [5]) is less than 100 nM.
Regarding `FC(F)(F)Oc1ccc(Oc2ccc(-c3nccs3)c3oc(N4CC5CC(C4)N5)nc23)nc1` [Example 343, 2-(3,6-Diazabicyclo[3.1.1]heptan-3-yl)-7-(thiazol-2-yl)-4-((5-(trifluoromethoxy)pyridin-2-yl)oxy)benzo[d]oxazole], the “Residual ratio (% remaining for 30-minute reaction)” value in data set [3] was “B (B: 60% or more and less than 75%)”. In addition, in data set [1] (setting [5]), the IC50 was less than 100 nM.
On to `O=C(NCCO)c1ccc(-c2nccs2)c2oc(N3CC4CC(C3)N4)nc12` [Example 355, 2-(3,6-Diazabicyclo[3.1.1]heptan-3-yl)-N-(2-hydroxyethyl)-7-(thiazol-2-yl)benzo[d]oxazole-4-carboxamide], for which, in data set [3], the “Residual ratio (% remaining for 30-minute reaction)” value is on record as “A (A: a % remaining rate of 75% or more)”. For the same compound, in data set [1] (setting [5]), the IC50 was less than 100 nM.
In the same order, the values of `O=C(N1CC(O)C1)C(F)(F)Oc1ccc(-c2nccs2)c2oc(N3CC4CC(C3)N4)nc12` [Example 412, 2-((2-(3,6-Diazabicyclo[3.1.1]heptan-3-yl)-7-(thiazol-2-yl)benzo[d]oxazol-4-yl)oxy)-2,2-difluoro-1-(3-hydroxyazetidin-1-yl)ethan-1-one] are “A (A: a % remaining rate of 75% or more)” and less than 100 nM.
For `Cc1nsc(-c2ccc(OC(F)(F)C(C)(C)O)c3nc(N4CC5CCC(C4)N5)oc23)n1` [Example 333, 1-((2-(3,8-Diazabicyclo[3.2.1]octan-3-yl)-7-(3-methyl-1,2,4-thiadiazol-5-yl)benzo[d]oxazol-4-yl)oxy)-1,1-difluoro-2-methylpropan-2-ol], the “Residual ratio (% remaining for 30-minute reaction)” value in data set [3] was “B (B: 60% or more and less than 75%)”. Besides, the IC50 in data set [1] (setting [5]) fell in the range of 100 to 1000 nM.
Consider `Cn1ccc(-c2ccc(OC(F)(F)C(C)(C)O)c3nc(N4CC5CCC(C4)N5)oc23)n1` [Example 328, 1-((2-(3,8-Diazabicyclo[3.2.1]octan-3-yl)-7-(1-methyl-1H-pyrazol-3-yl)benzo[d]oxazol-4-yl)oxy)-1,1-difluoro-2-methylpropan-2-ol], for which the “Residual ratio (% remaining for 30-minute reaction)” value in data set [3] is “A (A: a % remaining rate of 75% or more)”. In addition, in data set [1] (setting [5]), the IC50 was less than 100 nM.
Take `NC(=O)c1ccc(-c2nccs2)c2oc(N3CC4CC(C3)N4)nc12` [Example 354, 2-(3,6-Diazabicyclo[3.1.1]heptan-3-yl)-7-(thiazol-2-yl)benzo[d]oxazole-4-carboxamide]: the “Residual ratio (% remaining for 30-minute reaction)” value in data set [3] is “A (A: a % remaining rate of 75% or more)”. In addition, the IC50 in data set [1] (setting [5]) is less than 100 nM.
